Results published in patent US20240327364A1, “THERAPEUTIC TARGETING OF GPR68 TO INDUCE FERROPTOSIS” (University Of Maryland, Baltimore, priority 2023, published 2024).

Tests used:
ASK1 = biological target: T1, ASK1 (Homo sapiens, UniProt Q99683); assay: KinomeScan; format: binding; details: read-out: % Control
T1 construct: purchased DiscoveRx (Fremont, CA)

GPR99 = biological target: T2, GPR99 (Homo sapiens, UniProt Q96P68); assay: GPCR Profiler; format: cell-based
T2 construct: host or cells: Chem-1 cells with promiscuous Gα15

DYRK1B = biological target: T3, DYRK1B (Homo sapiens, UniProt Q9Y463); assay: KinomeScan; format: binding; details: read-out: % Control
T3 construct: purchased DiscoveRx (Fremont, CA), KinomeScan service

[1] = biological target: T4, ABL1(T315I)-phosphorylated (Homo sapiens, UniProt P00519, T315I); assay: KinomeScan; format: binding; details: read-out: % Control
T4 construct: purchased DiscoveRx

CLK1 = CLK1 (Homo sapiens, UniProt P49759); assay: KinomeScan; format: binding; details: read-out: % Control
HUNK = biological target: T5, HUNK (Homo sapiens, UniProt P57058); assay: KinomeScan; format: binding; details: read-out: % Control
T5 construct: purchased DiscoveRx (Fremont, CA)

5-HT1A = biological target: T6, 5-HT1A (Homo sapiens, UniProt P08908); assay: GPCR Profiler; format: cell-based
T6 construct: host or cells: Chem-1 cells with promiscuous Gα15
T6 sequence (P08908 whole entry): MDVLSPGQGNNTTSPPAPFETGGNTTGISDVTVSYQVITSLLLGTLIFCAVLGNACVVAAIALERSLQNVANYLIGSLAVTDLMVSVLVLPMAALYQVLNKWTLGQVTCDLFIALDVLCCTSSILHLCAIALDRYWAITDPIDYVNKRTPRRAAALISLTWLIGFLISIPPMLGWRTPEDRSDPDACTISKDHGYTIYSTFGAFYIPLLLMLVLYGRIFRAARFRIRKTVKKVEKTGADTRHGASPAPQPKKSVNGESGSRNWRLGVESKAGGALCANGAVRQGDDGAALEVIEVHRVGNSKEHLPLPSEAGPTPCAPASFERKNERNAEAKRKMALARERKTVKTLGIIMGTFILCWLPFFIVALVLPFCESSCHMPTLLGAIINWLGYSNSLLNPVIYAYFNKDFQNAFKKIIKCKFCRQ

EPHA4 = biological target: T7, EPHA4 (Homo sapiens, UniProt P54764); assay: KinomeScan; format: binding; details: read-out: % Control
T7 construct: purchased DiscoveRx (Fremont, CA)

OSR1 = biological target: T8, OSR1 (Homo sapiens, UniProt O95747); assay: KinomeScan; format: binding; details: read-out: % Control
T8 construct: purchased DiscoveRx

CHEK2 = CHEK2 (Homo sapiens, UniProt O96017); assay: KinomeScan; format: binding; details: read-out: % Control
MKNK2 = biological target: T9, MKNK2 (Homo sapiens, UniProt Q9HBH9); assay: KinomeScan; format: binding; details: read-out: % Control
T9 construct: purchased DiscoveRx

BLK = biological target: T10, BLK (Homo sapiens, UniProt P51451); assay: KinomeScan; format: binding; details: read-out: % Control
T10 construct: purchased DiscoveRx (Fremont, CA)

CXCR3 = biological target: T11, CXCR3 (Homo sapiens, UniProt P49682); assay: GPCR Profiler; format: cell-based
T11 construct: host or cells: Chem-1 cells with Gα15
T11 sequence (P49682 whole entry, species assumed): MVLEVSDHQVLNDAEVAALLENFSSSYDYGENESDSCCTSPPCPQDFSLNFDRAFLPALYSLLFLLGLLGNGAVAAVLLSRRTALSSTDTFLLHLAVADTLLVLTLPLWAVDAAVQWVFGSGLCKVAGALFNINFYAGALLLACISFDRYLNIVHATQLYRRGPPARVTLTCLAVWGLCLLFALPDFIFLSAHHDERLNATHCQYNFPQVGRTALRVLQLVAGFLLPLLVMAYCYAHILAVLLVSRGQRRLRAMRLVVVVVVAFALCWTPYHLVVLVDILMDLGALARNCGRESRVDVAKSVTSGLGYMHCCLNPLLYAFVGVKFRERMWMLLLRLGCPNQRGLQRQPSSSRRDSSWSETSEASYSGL

GRK7 = biological target: T12, GRK7 (Homo sapiens, UniProt Q8WTQ7); assay: KinomeScan; format: binding; details: read-out: % Control
T12 construct: purchased DiscoveRx (Fremont, CA)
T12 sequence (Q8WTQ7 whole entry): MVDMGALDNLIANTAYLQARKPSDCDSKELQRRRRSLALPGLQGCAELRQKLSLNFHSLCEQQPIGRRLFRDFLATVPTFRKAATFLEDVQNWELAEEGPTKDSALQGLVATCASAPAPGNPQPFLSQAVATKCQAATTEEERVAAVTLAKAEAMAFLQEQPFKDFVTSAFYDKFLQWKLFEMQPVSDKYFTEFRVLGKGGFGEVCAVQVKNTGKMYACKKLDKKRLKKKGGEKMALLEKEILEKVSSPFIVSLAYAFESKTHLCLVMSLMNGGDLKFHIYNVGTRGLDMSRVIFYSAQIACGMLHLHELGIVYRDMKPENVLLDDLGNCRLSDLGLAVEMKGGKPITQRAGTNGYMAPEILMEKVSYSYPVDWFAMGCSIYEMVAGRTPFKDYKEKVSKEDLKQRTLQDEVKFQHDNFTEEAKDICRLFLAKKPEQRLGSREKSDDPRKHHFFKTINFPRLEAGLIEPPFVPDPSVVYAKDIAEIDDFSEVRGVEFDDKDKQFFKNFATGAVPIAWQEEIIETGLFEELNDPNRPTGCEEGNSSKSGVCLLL

V1B = biological target: T13, V1B (Homo sapiens, UniProt P47901); assay: GPCR Profiler; format: cell-based
T13 construct: host or cells: Chem-1 cells with Gα15
T13 sequence (P47901 whole entry): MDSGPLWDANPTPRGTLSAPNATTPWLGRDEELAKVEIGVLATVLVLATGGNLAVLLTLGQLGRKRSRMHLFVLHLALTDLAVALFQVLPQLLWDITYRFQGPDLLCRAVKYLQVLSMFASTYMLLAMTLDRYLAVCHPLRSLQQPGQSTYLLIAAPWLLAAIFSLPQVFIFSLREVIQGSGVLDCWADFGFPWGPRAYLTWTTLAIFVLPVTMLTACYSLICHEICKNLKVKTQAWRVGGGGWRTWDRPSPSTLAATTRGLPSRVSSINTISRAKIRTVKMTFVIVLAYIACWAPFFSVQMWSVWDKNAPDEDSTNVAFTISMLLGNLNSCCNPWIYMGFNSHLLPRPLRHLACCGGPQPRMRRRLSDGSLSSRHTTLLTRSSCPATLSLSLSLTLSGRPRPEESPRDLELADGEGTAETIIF

GIP = biological target: T14, GIP (Homo sapiens, UniProt P48546); assay: GPCR Profiler; format: cell-based
T14 construct: host or cells: Chem-1 cells expressing Gα15
T14 sequence (P48546 22-466): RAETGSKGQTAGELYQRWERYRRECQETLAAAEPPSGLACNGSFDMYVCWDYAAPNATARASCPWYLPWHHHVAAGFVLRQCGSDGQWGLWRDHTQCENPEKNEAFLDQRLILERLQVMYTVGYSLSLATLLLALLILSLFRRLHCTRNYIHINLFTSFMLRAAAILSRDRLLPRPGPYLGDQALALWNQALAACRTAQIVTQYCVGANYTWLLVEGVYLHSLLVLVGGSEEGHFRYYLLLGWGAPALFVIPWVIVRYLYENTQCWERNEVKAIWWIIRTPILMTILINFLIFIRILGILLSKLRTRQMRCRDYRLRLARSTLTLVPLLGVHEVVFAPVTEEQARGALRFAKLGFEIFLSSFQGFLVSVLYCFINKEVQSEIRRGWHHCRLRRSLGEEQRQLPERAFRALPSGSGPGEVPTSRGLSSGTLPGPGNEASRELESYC

PDPK1 = biological target: T15, PDPK1 (Homo sapiens, UniProt O15530); assay: KinomeScan; format: binding; details: read-out: % Control
T15 construct: purchased DiscoveRx (Fremont, CA)

GPR109A = biological target: T16, GPR109A (Homo sapiens, UniProt Q8TDS4); assay: GPCR Profiler; format: cell-based
T16 construct: host or cells: Chem-1 cells expressing Gα15
T16 sequence (Q8TDS4 whole entry): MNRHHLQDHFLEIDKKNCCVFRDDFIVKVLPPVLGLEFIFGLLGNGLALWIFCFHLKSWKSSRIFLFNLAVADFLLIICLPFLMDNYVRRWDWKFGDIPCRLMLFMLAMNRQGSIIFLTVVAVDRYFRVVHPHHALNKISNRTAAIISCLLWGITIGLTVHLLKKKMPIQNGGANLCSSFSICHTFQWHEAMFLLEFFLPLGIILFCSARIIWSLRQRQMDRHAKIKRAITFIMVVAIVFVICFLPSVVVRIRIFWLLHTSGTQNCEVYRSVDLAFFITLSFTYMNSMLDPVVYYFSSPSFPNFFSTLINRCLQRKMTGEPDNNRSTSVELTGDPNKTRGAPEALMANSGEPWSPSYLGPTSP

mGlu2 = biological target: T17, mGlu2 (Homo sapiens, UniProt Q14416); assay: GPCR Profiler; format: cell-based
T17 construct: host or cells: Chem-1 cells expressing Gα15
T17 sequence (Q14416 19-872): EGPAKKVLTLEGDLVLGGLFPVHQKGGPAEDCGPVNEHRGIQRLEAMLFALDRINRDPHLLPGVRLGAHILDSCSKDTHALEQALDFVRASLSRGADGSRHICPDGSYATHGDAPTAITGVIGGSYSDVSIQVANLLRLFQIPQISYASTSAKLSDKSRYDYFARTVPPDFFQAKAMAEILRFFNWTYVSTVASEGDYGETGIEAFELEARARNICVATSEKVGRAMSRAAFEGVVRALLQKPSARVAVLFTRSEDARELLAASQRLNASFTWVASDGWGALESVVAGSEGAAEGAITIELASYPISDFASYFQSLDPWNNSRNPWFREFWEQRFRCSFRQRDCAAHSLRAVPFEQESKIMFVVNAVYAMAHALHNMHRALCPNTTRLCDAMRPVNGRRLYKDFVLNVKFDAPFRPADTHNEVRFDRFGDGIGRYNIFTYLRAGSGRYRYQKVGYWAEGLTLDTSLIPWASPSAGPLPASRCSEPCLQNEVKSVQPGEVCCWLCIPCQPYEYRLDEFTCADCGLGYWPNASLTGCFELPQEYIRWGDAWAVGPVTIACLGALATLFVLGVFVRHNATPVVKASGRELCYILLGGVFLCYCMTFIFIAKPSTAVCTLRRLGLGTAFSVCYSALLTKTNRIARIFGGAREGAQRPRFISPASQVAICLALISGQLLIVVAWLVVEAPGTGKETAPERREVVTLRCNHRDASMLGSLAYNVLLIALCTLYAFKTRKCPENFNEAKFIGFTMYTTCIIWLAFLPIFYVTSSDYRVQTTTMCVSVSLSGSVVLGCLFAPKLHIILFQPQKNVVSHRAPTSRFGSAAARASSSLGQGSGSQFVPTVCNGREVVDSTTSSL

sst4 = biological target: T18, sst4 (Homo sapiens, UniProt P31391); assay: GPCR Profiler; format: cell-based
T18 construct: host or cells: Chem-1 cells with Gα15
T18 sequence (P31391 whole entry, species assumed): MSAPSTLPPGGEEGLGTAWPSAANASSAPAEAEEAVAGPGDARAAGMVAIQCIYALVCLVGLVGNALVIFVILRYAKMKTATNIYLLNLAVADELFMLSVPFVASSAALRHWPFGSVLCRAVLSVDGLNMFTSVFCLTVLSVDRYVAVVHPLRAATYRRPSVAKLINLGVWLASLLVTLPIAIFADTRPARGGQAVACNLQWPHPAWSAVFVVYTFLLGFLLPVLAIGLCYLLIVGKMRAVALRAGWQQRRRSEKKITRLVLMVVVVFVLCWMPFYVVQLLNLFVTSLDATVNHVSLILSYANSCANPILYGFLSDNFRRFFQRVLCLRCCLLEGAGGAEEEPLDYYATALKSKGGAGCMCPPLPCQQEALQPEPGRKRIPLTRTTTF

PIK3CD = biological target: T19, PIK3CD (Homo sapiens, UniProt O00329); assay: KinomeScan; format: binding; details: read-out: % Control
T19 construct: purchased DiscoveRx (Fremont, CA)

EGFR(G719S) = biological target: T20, EGFR(G719S) (Homo sapiens, UniProt P00533, G719S); assay: KinomeScan; format: binding; details: read-out: % Control
T20 construct: purchased DiscoveRx (Fremont, CA), KinomeScan service
T20 sequence (P00533 25-1210 G719S): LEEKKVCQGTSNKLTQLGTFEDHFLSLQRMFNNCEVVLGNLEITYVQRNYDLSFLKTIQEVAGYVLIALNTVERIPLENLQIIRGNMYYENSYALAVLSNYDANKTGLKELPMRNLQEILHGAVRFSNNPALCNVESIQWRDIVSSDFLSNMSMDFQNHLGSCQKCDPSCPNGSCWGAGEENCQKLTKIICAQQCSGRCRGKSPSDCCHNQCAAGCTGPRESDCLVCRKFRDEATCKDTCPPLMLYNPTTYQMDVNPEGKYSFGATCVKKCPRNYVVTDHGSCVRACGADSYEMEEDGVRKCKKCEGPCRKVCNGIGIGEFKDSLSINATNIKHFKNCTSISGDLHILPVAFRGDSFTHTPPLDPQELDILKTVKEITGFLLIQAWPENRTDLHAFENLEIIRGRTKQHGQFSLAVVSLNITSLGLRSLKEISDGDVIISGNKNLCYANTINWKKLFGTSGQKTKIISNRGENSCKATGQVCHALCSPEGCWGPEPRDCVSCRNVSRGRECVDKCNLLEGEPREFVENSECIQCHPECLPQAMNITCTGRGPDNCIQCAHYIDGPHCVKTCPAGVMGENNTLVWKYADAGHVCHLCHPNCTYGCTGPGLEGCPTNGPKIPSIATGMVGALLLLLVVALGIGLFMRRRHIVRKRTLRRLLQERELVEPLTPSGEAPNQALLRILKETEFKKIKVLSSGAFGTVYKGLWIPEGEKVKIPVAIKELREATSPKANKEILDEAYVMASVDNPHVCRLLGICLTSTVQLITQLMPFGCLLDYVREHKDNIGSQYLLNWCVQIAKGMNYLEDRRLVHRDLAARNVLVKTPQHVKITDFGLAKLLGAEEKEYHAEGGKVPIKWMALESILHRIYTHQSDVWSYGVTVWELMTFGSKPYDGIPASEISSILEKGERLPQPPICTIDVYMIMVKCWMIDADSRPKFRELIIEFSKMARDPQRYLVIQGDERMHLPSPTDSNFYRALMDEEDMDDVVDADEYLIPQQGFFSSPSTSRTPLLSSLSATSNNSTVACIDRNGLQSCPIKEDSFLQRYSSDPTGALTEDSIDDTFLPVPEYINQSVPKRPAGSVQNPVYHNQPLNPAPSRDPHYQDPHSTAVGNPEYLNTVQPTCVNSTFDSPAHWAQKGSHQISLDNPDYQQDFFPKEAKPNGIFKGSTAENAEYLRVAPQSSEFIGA

EPHA5 = biological target: T21, EPHA5 (Homo sapiens, UniProt P54756); assay: KinomeScan; format: binding; details: read-out: % Control
T21 construct: purchased DiscoveRx (Fremont, CA)

PANC02 = assay: Scratch migration; format: cell-based; details: 10 μM OGM2, 24 hours
Procedure: In a second study. PANC02 pancreatic cells plated and grown to confluence. Using a P200 tip, cells were denuded and allowed to migrate for 24 hours in DMSO or 10 μM OGM2 and imaged.

HKSA-induced ALI = assay: HKSA-induced acute lung injury; format: in vivo, C57Bl mice; details: OGM2 40 mg/kg
Procedure: FIG. 37A through FIG. 37D: OGM2 attenuates HKSA- and LPS-induced acute lung injury (ALI) in vivo. FIG. 37A: GPR68 mRNA is markedly elevated in lungs, heart and brain of HKSA-challenged (5×10^7/kg, i/n, 18 hr) C57Bl mice). FIG. 37B: LPS (0.7 mg/kg intratracheal) and […] ALI in mice markedly increases mRNA expression of GPR68, relative to GPR4, GPR65, and GPR132; *p<0.01 vs. vehicle; n=3.

A549 = assay: Liperfluo lipid peroxidation; format: cell-based, human; details: OGM2 and ionizing radiation
Procedure: Where appropriate, ANOVA, or student's T-test were conducted in PRISM. Chi squared T(X) was used for Liperfluo analysis. A value T(X)>4 implies that the two distributions are different with a p<0.01 (99% confidence). For drug interaction and therapeutic interaction, the coefficient of drug interaction (CDI) was calculated as follows: CDI=AB/(A×B). According to the impact of each group, AB is the value of combined treatment and A or B is the value of the single agent group to control group.
Radiation, like OGM2, induces lipid peroxidation in addition to DNA damage. OGM was tested for its ability to sensitize lung and pancreatic cancers to radiation induced lipid peroxidation and ferroptosis. Cells were incubated at 37° C. in 5% CO2 in […] DMEM with DMSO, OGM2, or Erastin for 3 days. Then 2.5 μM Liperfluo in 3 ml fresh media was added and cells were incubated at 37° C. in 5% CO2 for 1 hour. Cells were then trypsinized, pelleted, and resuspended in cell sorting media (1% BSA and 1 mM EDTA in PBS pH 7.4). A BD LSR II was used to record Ten thousand events and the data processed with FlowJo v10.8. […] All treatments were highly significant with Chi-squared >4 indicating a p<0.01.

Structure (SMILES): CCc1ccc2c(c1)C1(NN=C(c3cccc4ccccc34)S1)C(=O)N2 (centres unmarked) [OGM1, 5-ethyl-5′-naphthalen-1-ylspiro[1H-indole-3,2′-3H-1,3,4-thiadiazole]-2-one]
- remaining binding at 10 µM (ASK1): 100%
- Antagonism (GPR99; 10 uM): 0.5
- Agonism (GPR99; 12.5 uM): 6.5
- remaining binding at 10 µM (DYRK1B): 58%
- remaining binding at 10 µM [1]: 72%
- remaining binding at 10 µM (CLK1): 100%
- remaining binding at 10 µM (HUNK): 83%
- Antagonism (5-HT1A; 10 uM): −7.5
- Agonism (5-HT1A; 12.5 uM): −0.8
- remaining binding at 10 µM (EPHA4): 100%
- remaining binding at 10 µM (OSR1): 92%
- remaining binding at 10 µM (CHEK2): 82%
- remaining binding at 10 µM (MKNK2): 91%
- remaining binding at 10 µM (BLK): 97%
- Antagonism (CXCR3; 10 uM): −2
- Agonism (CXCR3; 12.5 uM): 0.1
- remaining binding at 10 µM (GRK7): 73%
- Antagonism (V1B; 10 uM): −2.8
- Agonism (V1B; 12.5 uM): −0.1
- Antagonism (GIP; 10 uM): 0.2
- Agonism (GIP; 12.5 uM): 1.5
- remaining binding at 10 µM (PDPK1): 100%
- Antagonism (GPR109A; 10 uM): 20.3
- Agonism (GPR109A; 12.5 uM): −0.2
- Antagonism (mGlu2; 10 uM): −1.2
- Agonism (mGlu2; 12.5 uM): −0.4
- Antagonism (sst4; 10 uM): −2.6
- Agonism (sst4; 12.5 uM): −1.1
- remaining binding at 10 µM (PIK3CD): 55%
- remaining binding at 10 µM (EGFR(G719S)): 95%
- remaining binding at 10 µM (EPHA5): 97%

Structure (SMILES): CCc1ccc2c(c1)C1(NN=C(c3ccccc3)S1)C(=O)N2 (centres unmarked) [OGM2]
- migration (PANC02): significantly reduced migration
- lung vascular leak (Evans blue-labeled albumin) (HKSA-induced ALI; 3 hr post administration): significantly attenuated
- inflammatory cytokine (TNFα, IL-6, KC, IL-1β) transcripts in the lungs (HKSA-induced ALI; i.p.): significantly attenuated induction
- CDI, lipid peroxidation (A549): < 0.232
